The values that follow come from patent publication US20180088120A1, “Elevated PSMA Identifies Lethal Prostate Cancers” (Cornell University, priority 2012, published 2018).

The test system of this assay is prostate cancer lesions. Description: FDG PET imaging of prostate cancer patients (comparison). It is filed as in vivo, human. The text has this:
These panels show CT scans (left column) and PET scans (right column). […] However, this is not observed in the Fludeoxyglucose (^18F) PET (lower right panel).
FIGS. 7-9 show CT and PET/CT scan taken from the same patient as from FIG. 6.

The structures appear in SMILES notation.

Turning to `OC[C@H]1OC(O)[C@H]([18F])[C@@H](O)[C@@H]1O` (some centres unmarked) [Fludeoxyglucose (^18F)], the “PET uptake in bone metastasis, left iliac bone” value (patient with metastatic prostate cancer, FIG. 5) is “not observed”. Besides, the “Uptake in skeletal lesions not clearly seen on bone scan” value (patient with prostate carcinoma, FIG. 6) is reported as “non-FDG avid”.
